# Source: ChEMBL document CHEMBL4507315 (2021)
# Experiments:
# [1] = biological target: Mitogen-activated protein kinase kinase kinase 20 (Homo sapiens, UniProt Q9NYL2); assay: NanoBRET (MAP3K20)
# [2] = system: Tyrosine-protein kinase ABL1 (Homo sapiens), P00519 [F317L]; settings: Compound concentration 100.0 nM
# [3] = system: Tyrosine-protein kinase ABL1 (Homo sapiens), P00519 [T315I]; settings: Compound concentration 100.0 nM
# [4] = biological target: Tyrosine-protein kinase Blk (Homo sapiens) (UniProt P51451); settings: Compound concentration 100.0 nM
# [5] = system: Serine/threonine-protein kinase B-raf (Homo sapiens), P15056 [V600E]; settings: Compound concentration 100.0 nM
# [6] = biological target: Calcium/calmodulin-dependent protein kinase type IV (Homo sapiens) (UniProt Q16566); settings: Compound concentration 100.0 nM
# [7] = biological target: Cyclin-dependent kinase 13 (Homo sapiens) (UniProt Q14004); settings: Compound concentration 100.0 nM
# [8] = biological target: Cyclin-dependent kinase 9 (Homo sapiens) (UniProt P50750); settings: Compound concentration 100.0 nM
# Chain of Cyclin-dependent kinase 9 (Homo sapiens) (P50750 whole entry): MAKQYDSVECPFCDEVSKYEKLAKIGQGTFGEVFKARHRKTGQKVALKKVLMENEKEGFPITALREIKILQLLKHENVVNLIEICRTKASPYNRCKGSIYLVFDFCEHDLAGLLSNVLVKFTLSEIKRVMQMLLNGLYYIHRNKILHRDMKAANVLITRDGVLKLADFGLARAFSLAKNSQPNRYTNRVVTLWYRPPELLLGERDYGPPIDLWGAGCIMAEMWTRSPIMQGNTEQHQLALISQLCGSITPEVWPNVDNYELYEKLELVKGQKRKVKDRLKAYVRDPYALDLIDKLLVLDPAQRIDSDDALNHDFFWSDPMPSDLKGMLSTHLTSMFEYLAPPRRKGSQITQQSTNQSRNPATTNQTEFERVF
# [9] = biological target: Citron Rho-interacting kinase (Homo sapiens) (UniProt O14578); settings: Compound concentration 100.0 nM
# [10] = system: Epidermal growth factor receptor (Homo sapiens), P00533 [UNDEFINED MUTATION]; settings: Compound concentration 100.0 nM
# [11] = biological target: Mitogen-activated protein kinase 4 (Homo sapiens) (UniProt P31152); settings: Compound concentration 100.0 nM
# [12] = biological target: Mitogen-activated protein kinase 7 (Homo sapiens) (UniProt Q13164); settings: Compound concentration 100.0 nM
# [13] = biological target: Fibroblast growth factor receptor 3 (Homo sapiens) (UniProt P22607); settings: Compound concentration 100.0 nM
# [14] = system: Fibroblast growth factor receptor 3 (Homo sapiens), P22607 [G697C]; settings: Compound concentration 100.0 nM
# Chain of Fibroblast growth factor receptor 3 (Homo sapiens), P22607 [G697C] (P22607 whole entry G697C): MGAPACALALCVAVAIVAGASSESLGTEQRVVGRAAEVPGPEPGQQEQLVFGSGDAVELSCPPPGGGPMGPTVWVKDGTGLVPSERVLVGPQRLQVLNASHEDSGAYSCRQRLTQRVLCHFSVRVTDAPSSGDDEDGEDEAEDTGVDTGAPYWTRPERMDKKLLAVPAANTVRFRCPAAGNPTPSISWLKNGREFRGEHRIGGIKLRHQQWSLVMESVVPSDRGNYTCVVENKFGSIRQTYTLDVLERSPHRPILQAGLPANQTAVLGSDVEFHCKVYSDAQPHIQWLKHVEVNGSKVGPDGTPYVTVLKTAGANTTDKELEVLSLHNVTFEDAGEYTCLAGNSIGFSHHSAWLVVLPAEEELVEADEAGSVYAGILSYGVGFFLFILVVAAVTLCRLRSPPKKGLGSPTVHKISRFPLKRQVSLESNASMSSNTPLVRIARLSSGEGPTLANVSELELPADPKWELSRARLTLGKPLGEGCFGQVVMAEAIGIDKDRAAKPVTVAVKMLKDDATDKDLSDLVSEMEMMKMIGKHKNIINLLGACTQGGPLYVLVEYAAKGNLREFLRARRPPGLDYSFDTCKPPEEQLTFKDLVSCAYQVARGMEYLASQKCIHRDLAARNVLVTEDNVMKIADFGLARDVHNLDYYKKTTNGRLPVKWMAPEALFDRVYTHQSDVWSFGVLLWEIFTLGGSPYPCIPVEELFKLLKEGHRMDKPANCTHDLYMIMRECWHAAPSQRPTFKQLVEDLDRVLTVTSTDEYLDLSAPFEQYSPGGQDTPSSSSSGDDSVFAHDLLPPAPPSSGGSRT
# [15] = system: Receptor-type tyrosine-protein kinase FLT3 (Homo sapiens), P36888 [D835Y]; settings: Compound concentration 100.0 nM
# [16] = biological target: Serine/threonine-protein kinase haspin (Homo sapiens) (UniProt Q8TF76); settings: Compound concentration 100.0 nM
# [17] = biological target: Serine/threonine-protein kinase ICK (Homo sapiens) (UniProt Q9UPZ9); settings: Compound concentration 100.0 nM
# [18] = biological target: Serine/threonine-protein kinase LATS2 (Homo sapiens) (UniProt Q9NRM7); settings: Compound concentration 100.0 nM
# [19] = biological target: Dual specificity mitogen-activated protein kinase kinase 1 (Homo sapiens) (UniProt Q02750); settings: Compound concentration 100.0 nM
# Chain of Dual specificity mitogen-activated protein kinase kinase 1 (Homo sapiens) (Q02750 whole entry): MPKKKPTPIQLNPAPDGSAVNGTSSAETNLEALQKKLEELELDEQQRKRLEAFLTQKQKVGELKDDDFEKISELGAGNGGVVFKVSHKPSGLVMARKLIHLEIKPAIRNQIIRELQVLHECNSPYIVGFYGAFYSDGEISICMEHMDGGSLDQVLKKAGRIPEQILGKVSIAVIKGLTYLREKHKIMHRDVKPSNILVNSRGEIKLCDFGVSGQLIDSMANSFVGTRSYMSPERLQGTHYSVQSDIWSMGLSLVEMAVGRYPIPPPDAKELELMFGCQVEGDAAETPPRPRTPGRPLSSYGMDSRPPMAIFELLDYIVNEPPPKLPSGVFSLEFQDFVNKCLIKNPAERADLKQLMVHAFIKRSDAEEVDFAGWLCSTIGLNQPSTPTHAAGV
# [20] = biological target: Tyrosine-protein kinase Mer (Homo sapiens) (UniProt Q12866); settings: Compound concentration 100.0 nM
# [21] = biological target: Myosin light chain kinase, smooth muscle (Homo sapiens) (UniProt Q15746); settings: Compound concentration 100.0 nM
# [22] = biological target: Serine/threonine-protein kinase 38 (Homo sapiens) (UniProt Q15208); settings: Compound concentration 100.0 nM
# [23] = biological target: Serine/threonine-protein kinase Nek2 (Homo sapiens) (UniProt P51955); settings: Compound concentration 100.0 nM
# [24] = biological target: Serine/threonine-protein kinase OSR1 (Homo sapiens) (UniProt O95747); settings: Compound concentration 100.0 nM
# [25] = biological target: Serine/threonine-protein kinase PAK 3 (Homo sapiens) (UniProt O75914); settings: Compound concentration 100.0 nM
# [26] = system: Phosphatidylinositol 4,5-bisphosphate 3-kinase catalytic subunit alpha isoform (Homo sapiens), P42336 [E545A]; settings: Compound concentration 100.0 nM
# [27] = system: Phosphatidylinositol 4,5-bisphosphate 3-kinase catalytic subunit alpha isoform (Homo sapiens), P42336 [M1043I]; settings: Compound concentration 100.0 nM
# [28] = system: Phosphatidylinositol 4,5-bisphosphate 3-kinase catalytic subunit alpha isoform (Homo sapiens), P42336 [Q546K]; settings: Compound concentration 100.0 nM
# [29] = biological target: Phosphatidylinositol 4,5-bisphosphate 3-kinase catalytic subunit gamma isoform (Homo sapiens) (UniProt P48736); settings: Compound concentration 100.0 nM
# Chain of Phosphatidylinositol 4,5-bisphosphate 3-kinase catalytic subunit gamma isoform (Homo sapiens) (P48736 whole entry, looked up, canonical isoform): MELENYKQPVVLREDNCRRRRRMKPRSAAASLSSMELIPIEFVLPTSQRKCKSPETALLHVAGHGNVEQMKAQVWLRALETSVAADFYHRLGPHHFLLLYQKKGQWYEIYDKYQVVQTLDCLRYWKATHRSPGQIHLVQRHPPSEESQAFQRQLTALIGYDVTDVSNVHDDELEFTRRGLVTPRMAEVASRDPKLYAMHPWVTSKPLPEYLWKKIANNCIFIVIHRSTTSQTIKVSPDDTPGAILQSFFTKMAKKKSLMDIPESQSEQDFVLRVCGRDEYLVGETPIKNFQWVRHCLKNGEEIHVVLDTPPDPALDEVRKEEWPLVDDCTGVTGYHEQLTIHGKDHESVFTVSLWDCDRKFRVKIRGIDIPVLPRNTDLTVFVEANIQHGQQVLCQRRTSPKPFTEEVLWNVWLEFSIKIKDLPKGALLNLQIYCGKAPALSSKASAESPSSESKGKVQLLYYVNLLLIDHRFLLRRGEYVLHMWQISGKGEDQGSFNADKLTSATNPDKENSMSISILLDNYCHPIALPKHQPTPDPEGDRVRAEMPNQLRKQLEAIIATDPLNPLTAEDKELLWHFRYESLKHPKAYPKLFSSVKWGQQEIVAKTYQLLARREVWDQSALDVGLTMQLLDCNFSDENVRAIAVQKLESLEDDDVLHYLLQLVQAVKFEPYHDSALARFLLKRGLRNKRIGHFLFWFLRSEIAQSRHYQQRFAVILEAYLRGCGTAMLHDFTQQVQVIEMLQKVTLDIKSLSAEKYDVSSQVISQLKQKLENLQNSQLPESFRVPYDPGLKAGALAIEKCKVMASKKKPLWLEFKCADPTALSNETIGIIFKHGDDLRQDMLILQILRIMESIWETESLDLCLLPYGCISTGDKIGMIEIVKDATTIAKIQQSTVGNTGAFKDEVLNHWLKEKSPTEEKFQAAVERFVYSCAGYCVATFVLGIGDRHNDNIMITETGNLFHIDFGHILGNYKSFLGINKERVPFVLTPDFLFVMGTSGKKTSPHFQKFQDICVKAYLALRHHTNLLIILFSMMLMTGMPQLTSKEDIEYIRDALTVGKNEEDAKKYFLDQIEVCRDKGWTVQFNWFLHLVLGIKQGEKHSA
# [30] = biological target: Phosphatidylinositol 4-kinase beta (Homo sapiens) (UniProt Q9UBF8); settings: Compound concentration 100.0 nM
# [31] = biological target: Serine/threonine-protein kinase pim-1 (Homo sapiens) (UniProt P11309); settings: Compound concentration 100.0 nM
# [32] = biological target: Serine/threonine-protein kinase N1 (Homo sapiens) (UniProt Q16512); settings: Compound concentration 100.0 nM
# [33] = biological target: Protein kinase C epsilon type (Homo sapiens) (UniProt Q02156); settings: Compound concentration 100.0 nM
# Chain of Protein kinase C epsilon type (Homo sapiens) (Q02156 whole entry): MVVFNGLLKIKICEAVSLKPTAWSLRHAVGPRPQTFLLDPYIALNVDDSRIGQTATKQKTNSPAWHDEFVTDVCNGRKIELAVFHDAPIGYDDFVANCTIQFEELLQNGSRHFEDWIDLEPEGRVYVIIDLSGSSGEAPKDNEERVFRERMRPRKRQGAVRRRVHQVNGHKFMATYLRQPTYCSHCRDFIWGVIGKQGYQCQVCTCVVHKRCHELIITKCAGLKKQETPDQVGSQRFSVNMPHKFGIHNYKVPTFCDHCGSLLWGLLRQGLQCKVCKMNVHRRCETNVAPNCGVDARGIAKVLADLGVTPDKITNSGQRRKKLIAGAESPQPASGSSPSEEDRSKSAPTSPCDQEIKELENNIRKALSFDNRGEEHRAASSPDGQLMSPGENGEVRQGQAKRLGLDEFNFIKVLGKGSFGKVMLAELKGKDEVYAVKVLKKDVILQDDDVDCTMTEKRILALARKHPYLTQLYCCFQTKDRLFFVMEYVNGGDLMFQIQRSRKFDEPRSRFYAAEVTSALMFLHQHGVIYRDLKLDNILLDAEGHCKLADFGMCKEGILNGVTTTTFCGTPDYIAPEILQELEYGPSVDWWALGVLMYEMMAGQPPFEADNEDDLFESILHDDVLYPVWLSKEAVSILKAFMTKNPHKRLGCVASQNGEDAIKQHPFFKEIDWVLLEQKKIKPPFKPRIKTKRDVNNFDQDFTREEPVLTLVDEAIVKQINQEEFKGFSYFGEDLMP
# [34] = biological target: Protein kinase C eta type (Homo sapiens) (UniProt P24723); settings: Compound concentration 100.0 nM
# [35] = biological target: Protein kinase C theta type (Homo sapiens) (UniProt Q04759); settings: Compound concentration 100.0 nM
# [36] = biological target: Proto-oncogene tyrosine-protein kinase receptor Ret (Homo sapiens) (UniProt P07949); settings: Compound concentration 100.0 nM
# [37] = biological target: Serine/threonine-protein kinase RIO3 (Homo sapiens) (UniProt O14730); settings: Compound concentration 100.0 nM
# [38] = biological target: Ribosomal protein S6 kinase alpha-4 (Homo sapiens) (UniProt O75676); settings: Compound concentration 100.0 nM
# [39] = biological target: Ribosomal protein S6 kinase alpha-3 (Homo sapiens) (UniProt P51812); settings: Compound concentration 100.0 nM
# [40] = biological target: Serine/threonine-protein kinase SIK2 (Homo sapiens) (UniProt Q9H0K1); settings: Compound concentration 100.0 nM
# [41] = biological target: STE20-like serine/threonine-protein kinase (Homo sapiens) (UniProt Q9H2G2); settings: Compound concentration 100.0 nM
# Chain of STE20-like serine/threonine-protein kinase (Homo sapiens) (Q9H2G2 whole entry, looked up): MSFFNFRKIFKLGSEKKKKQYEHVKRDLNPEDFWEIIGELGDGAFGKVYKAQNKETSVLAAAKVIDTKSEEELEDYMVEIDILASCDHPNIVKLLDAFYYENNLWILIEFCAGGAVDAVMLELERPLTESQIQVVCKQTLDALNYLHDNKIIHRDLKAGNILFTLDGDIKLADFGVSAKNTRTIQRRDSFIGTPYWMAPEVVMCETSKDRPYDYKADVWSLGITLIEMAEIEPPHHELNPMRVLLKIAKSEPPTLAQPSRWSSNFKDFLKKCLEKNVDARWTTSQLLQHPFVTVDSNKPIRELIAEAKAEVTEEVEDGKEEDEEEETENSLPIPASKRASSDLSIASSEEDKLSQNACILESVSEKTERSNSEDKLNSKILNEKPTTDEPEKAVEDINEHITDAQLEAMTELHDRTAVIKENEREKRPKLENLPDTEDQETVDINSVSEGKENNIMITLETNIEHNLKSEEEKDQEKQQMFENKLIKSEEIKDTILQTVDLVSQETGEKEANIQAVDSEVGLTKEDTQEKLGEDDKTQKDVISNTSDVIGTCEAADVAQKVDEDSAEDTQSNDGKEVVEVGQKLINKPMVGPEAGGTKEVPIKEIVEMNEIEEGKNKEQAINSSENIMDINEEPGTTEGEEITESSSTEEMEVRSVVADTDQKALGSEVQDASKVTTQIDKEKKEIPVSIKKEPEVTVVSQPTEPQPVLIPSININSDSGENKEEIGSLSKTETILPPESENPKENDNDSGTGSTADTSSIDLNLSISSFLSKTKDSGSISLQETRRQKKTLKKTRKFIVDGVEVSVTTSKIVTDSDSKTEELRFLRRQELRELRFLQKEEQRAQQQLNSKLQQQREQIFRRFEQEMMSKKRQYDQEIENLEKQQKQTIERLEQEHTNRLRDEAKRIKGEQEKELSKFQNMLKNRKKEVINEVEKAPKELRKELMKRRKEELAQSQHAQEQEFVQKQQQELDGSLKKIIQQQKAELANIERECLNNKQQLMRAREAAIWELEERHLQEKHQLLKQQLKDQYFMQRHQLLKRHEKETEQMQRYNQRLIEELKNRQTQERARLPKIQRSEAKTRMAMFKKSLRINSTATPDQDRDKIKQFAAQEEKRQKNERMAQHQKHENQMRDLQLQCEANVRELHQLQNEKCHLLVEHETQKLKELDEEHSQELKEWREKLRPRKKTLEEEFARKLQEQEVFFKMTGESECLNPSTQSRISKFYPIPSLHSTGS
# [42] = biological target: SRSF protein kinase 3 (Homo sapiens) (UniProt Q9UPE1); settings: Compound concentration 100.0 nM
# [43] = biological target: Serine/threonine-protein kinase 32C (Homo sapiens) (UniProt Q86UX6); settings: Compound concentration 100.0 nM
# [44] = biological target: Mu-type opioid receptor (Homo sapiens) (UniProt P35372); settings: Compound concentration 10.0 uM
# Chain of Mu-type opioid receptor (Homo sapiens) (P35372 whole entry): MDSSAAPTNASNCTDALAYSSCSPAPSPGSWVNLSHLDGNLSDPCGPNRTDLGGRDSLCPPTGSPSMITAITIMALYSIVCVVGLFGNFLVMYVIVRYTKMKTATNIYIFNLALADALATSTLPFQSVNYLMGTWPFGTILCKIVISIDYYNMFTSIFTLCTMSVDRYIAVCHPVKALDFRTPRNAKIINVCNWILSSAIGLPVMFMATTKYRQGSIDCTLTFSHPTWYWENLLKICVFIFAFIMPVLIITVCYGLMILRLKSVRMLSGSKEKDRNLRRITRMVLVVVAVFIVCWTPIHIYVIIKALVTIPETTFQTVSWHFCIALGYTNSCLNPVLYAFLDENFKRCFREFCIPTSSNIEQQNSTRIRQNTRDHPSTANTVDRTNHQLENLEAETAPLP
# [45] = biological target: Beta-1 adrenergic receptor (Homo sapiens) (UniProt P08588); settings: Compound concentration 10.0 uM
structure (smiles),measurement,setting,value
Nc1c(C(=O)NCc2ccc(C(=O)NCCCC3CCCCC3)cc2)cnn1-c1ccccc1 [SR-318],IC50,[1],0.91 µM (not active)
same,residual activity,[2],100%
same,residual activity,[3],100%
same,residual activity,[4],81%
same,residual activity,[5],100%
same,residual activity,[6],98%
same,residual activity,[7],79%
same,residual activity,[8],100%
same,residual activity,[9],100%
same,residual activity,[10],100%
same,residual activity,[11],100%
same,residual activity,[12],78%
same,residual activity,[13],100%
same,residual activity,[14],87%
same,residual activity,[15],100%
same,residual activity,[16],100%
same,residual activity,[17],100%
same,residual activity,[18],100%
same,residual activity,[19],100%
same,residual activity,[20],100%
same,residual activity,[21],68%
same,residual activity,[22],96%
same,residual activity,[23],100%
same,residual activity,[24],100%
same,residual activity,[25],100%
same,residual activity,[26],100%
same,residual activity,[27],100%
same,residual activity,[28],96%
same,residual activity,[29],100%
same,residual activity,[30],100%
same,residual activity,[31],93%
same,residual activity,[32],96%
same,residual activity,[33],100%
same,residual activity,[34],98%
same,residual activity,[35],100%
same,residual activity,[36],89%
same,residual activity,[37],100%
same,residual activity,[38],85%
same,residual activity,[39],100%
same,residual activity,[40],100%
same,residual activity,[41],80%
same,residual activity,[42],100%
same,residual activity,[43],90%
same,inhibition,[44],41.2%
same,inhibition,[45],25.3%
O=C(NCCCC1CCCCC1)c1ccc(CNC(=O)c2cnn(-c3ccccc3)c2C(F)(F)F)cc1 [SR-321],IC50,[1],5.8 µM (not active)
same,residual activity,[2],100%
same,residual activity,[3],100%
same,residual activity,[4],100%
same,residual activity,[5],100%
same,residual activity,[6],100%
same,residual activity,[7],100%
same,residual activity,[8],100%
same,residual activity,[9],86%
same,residual activity,[10],100%
same,residual activity,[11],100%
same,residual activity,[12],100%
same,residual activity,[13],100%
same,residual activity,[14],100%
same,residual activity,[15],100%
same,residual activity,[16],100%
same,residual activity,[17],79%
same,residual activity,[18],97%
same,residual activity,[19],89%
same,residual activity,[20],100%
same,residual activity,[21],100%
same,residual activity,[22],93%
same,residual activity,[23],100%
same,residual activity,[24],91%
same,residual activity,[25],100%
same,residual activity,[26],100%
same,residual activity,[27],68%
same,residual activity,[28],67%
same,residual activity,[29],95%
same,residual activity,[30],77%
same,residual activity,[31],100%
same,residual activity,[32],100%
same,residual activity,[33],88%
same,residual activity,[34],100%
same,residual activity,[35],100%
same,residual activity,[36],89%
same,residual activity,[37],100%
same,residual activity,[38],83%
same,residual activity,[39],100%
same,residual activity,[40],100%
same,residual activity,[41],100%
same,residual activity,[42],100%
same,residual activity,[43],100%
same,inhibition,[44],19.4%
same,inhibition,[45],21.9%
